Measurements as given in ChEMBL document CHEMBL5223068, “Novel thiobarbiturates as potent urease inhibitors with potential antibacterial activity: Design, synthesis, radiolabeling and biodistribution study” (Bioorg Med Chem, 2020).
In brackets after ≈: the same amount, converted by molar mass.

Legend:
Escherichia coli = assay: Antibacterial activity against Escherichia coli incubated for 24 to 48 hrs; assay type: functional; details: time 24-48 hrs
Klebsiella pneumoniae [1] = assay: Antibacterial activity against Klebsiella pneumoniae ATCC 700603 incubated for 18 to 24 hrs by broth microdilution assay; assay type: functional; details: time 18-24 hrs
Proteus vulgaris = assay: Antibacterial activity against Proteus vulgaris ATCC 13315 incubated for 18 to 24 hrs by broth microdilution assay; assay type: functional; details: time 18-24 hrs
Klebsiella pneumoniae [2] = assay: Antibacterial activity against clinical isolate Klebsiella pneumoniae incubated for 18 to 24 hrs by broth microdilution assay; assay type: functional; details: time 18-24 hrs
[3] = Inhibition of urease (unknown origin) incubated for 30 mins by microplate reader based analysis
[4] = Inhibition of urease (unknown origin) assessed as reduction on ammonia production incubated for 15 mins by indophenol reagent based microplate reader assay
Proteus mirabilis = assay: Antibacterial activity against clinical isolate Proteus mirabilis incubated for 18 to 24 hrs by broth microdilution assay; assay type: functional; details: time 18-24 hrs
[5] = Drug uptake in Swiss albino muscle infected mouse kidney measured upto 180 mins; assay type: ADME, tissue-based; details: in vivo, 3 h
[6] = Biodistribution in Swiss albino muscle infected mouse assessed as ratio of infected muscle to normal muscle measured after 30 mins post injection; assay type: ADME, organism-based, Muscle tissue; details: in vivo, 0.5 h
[7] = Biodistribution in Swiss albino muscle infected mouse assessed as ratio of infected muscle to normal muscle measured at all time intervals; assay type: ADME, organism-based, Muscle tissue; details: in vivo

Compound | MIC (Klebsiella pneumoniae [1]) [µg/mL] | IC50 [3] [µM] | also measured
O=C1C(C(=O)C(F)(F)F)C(=O)N(c2ccc(-c3ncc(-c4ccccc4)[nH]3)cc2)C(=S)N1c1ccc(Cl)cc1 (stereo unspecified) |  |  | MIC (Escherichia coli): ≤ 6.25 µg/mL
NC(=O)NNC(=O)CC1C(=O)NC(=S)NC1=O | 31.2 (≈ 121 µM) | 27.1 | MIC (Proteus vulgaris): 16 µg/mL (≈ 61.7 µM); MIC (Klebsiella pneumoniae [2]): 62.5 µg/mL (≈ 241 µM)
O=C(CC1C(=O)NC(=S)NC1=O)Nc1ccc(F)cc1 |  | 44.3 | 
CCN1C(=O)C(C(c2ccccc2)C2C(=O)N(CC)C(=S)N(CC)C2=O)C(=O)N(CC)C1=S |  |  | IC50 [4]: 7.45 µM
Cc1ccc(NC(=O)CC2C(=O)NC(=S)NC2=O)c(C)c1 |  | 75.4 | 
Cc1ccccc1NC(=O)CC1C(=O)NC(=S)NC1=O |  | 52.1 | 
CC(C)CNC(=O)CC1C(=O)NC(=S)NC1=O |  | 16.9 | 
CCCNC(=O)CC1C(=O)NC(=S)NC1=O |  | 11 | 
O=C(CC1C(=O)NC(=S)NC1=O)N/N=C/c1ccccc1 |  | 54.4 | 
Cc1ccc(/C=N/NC(=O)CC2C(=O)NC(=S)NC2=O)cc1 |  | 67.7 | 
CCOC(=O)/C(=C\N(C)C)C1C(=O)NC(=S)NC1=O | 31.2 (≈ 110 µM) | 13.6 | MIC (Klebsiella pneumoniae [2]): 62.5 µg/mL (≈ 219 µM); MIC (Proteus mirabilis): 15 µg/mL (≈ 52.6 µM)
O=C(CC1C(=O)NC(=S)NC1=O)NCCNC(=O)CC1C(=O)NC(=S)NC1=O |  | 29.8 | MIC (Klebsiella pneumoniae [2]): 62.5 µg/mL (≈ 146 µM)
O=C1NC(=S)NC(=O)C1CC(=O)N1CCOCC1 | 62.5 (≈ 230 µM) | 8.21 | Drug uptake [5]: Active; Ratio [6]: 3.72; MIC (Proteus vulgaris): 62.5 µg/mL (≈ 230 µM); MIC (Klebsiella pneumoniae [2]): 62.5 µg/mL (≈ 230 µM); Ratio [7]: > 1; MIC (Proteus mirabilis): 62.5 µg/mL (≈ 230 µM)
Cc1cccc(NC(=O)CC2C(=O)NC(=S)NC2=O)c1 |  | 76.5 | 
O=C(CC1C(=O)NC(=S)NC1=O)OCc1ccccc1 | 125 (≈ 428 µM) | 74.7 | 
CCOC(=O)CC1C(=O)NC(=S)NC1=O | 62.5 (≈ 271 µM) | 10.1 | MIC (Proteus vulgaris): 31.2 µg/mL (≈ 136 µM); MIC (Klebsiella pneumoniae [2]): 31.2 µg/mL (≈ 136 µM)
O=C(CC1C(=O)NC(=S)NC1=O)N/N=C/c1ccccc1O |  | 92.9 | 
COC(=O)c1ccc(NC(=O)CC2C(=O)NC(=S)NC2=O)cc1 |  | 22.9 | 
Cc1cccc(NC(=O)CC2C(=O)NC(=S)NC2=O)c1C |  | 71 | 
O=C(CC1C(=O)NC(=S)NC1=O)Nc1ccccc1 |  | 20.8 | 
NNC(=O)CC1C(=O)NC(=S)NC1=O | 125 (≈ 578 µM) | 60.3 | 
CC1=C(C(=O)O)N2C(=O)[C@@H](NC(=O)[C@H](N)c3ccccc3)[C@H]2SC1 [CEPHALEXIN ANHYDROUS] | 125 (≈ 360 µM) |  | MIC (Proteus vulgaris): 125 µg/mL (≈ 360 µM); MIC (Klebsiella pneumoniae [2]): > 250 µg/mL; MIC (Proteus mirabilis): 125 µg/mL (≈ 360 µM)
NC(N)=S [THIOUREA] |  | 20 | IC50 [4]: ≤ 21.1 µM
